From article PMC10897196, “Structure–activity characteristics of phenylalanine analogs selectively transported by L-type amino acid transporter 1 (LAT1)” (Scientific Reports, 2024)
Where two headings read alike, the source gives them in different places.

Columns and labels:
[1] = molecular target: T1, human LAT2 (Homo sapiens, UniProt Q9UHI5); assay: Inhibition of L-[14C]alanine uptake in HEK293-hLAT2 cells; type: cell-based
T1 construct: expressed in transfected cells
T1 sequence (Q9UHI5 1-535): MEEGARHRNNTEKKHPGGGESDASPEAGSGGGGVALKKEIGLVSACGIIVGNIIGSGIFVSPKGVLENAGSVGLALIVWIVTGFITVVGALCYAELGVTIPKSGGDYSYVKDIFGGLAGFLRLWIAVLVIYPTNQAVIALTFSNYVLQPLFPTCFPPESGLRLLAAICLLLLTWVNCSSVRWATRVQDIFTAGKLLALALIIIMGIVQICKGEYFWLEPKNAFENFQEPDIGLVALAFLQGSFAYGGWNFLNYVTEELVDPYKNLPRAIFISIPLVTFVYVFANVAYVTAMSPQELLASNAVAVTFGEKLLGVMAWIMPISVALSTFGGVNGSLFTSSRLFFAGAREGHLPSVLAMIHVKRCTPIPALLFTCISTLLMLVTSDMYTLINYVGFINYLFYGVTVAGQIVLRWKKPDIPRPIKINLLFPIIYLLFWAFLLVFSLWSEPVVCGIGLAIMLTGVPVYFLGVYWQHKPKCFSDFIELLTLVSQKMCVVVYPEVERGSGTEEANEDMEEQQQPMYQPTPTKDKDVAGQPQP
T1 sequence (P08195 1-529 partner): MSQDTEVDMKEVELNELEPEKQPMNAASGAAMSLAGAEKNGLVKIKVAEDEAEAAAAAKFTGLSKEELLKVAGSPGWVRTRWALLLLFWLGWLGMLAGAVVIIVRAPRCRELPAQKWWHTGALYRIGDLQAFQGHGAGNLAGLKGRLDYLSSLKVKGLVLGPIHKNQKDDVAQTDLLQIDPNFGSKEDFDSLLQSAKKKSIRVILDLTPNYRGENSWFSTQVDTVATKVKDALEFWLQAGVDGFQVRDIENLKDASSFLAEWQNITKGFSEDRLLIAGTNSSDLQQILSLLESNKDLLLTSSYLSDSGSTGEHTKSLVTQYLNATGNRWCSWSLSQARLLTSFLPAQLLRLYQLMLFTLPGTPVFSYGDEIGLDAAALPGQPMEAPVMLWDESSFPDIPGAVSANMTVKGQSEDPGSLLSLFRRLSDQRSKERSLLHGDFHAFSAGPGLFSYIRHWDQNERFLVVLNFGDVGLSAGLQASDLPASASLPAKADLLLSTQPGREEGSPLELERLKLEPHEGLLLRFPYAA
Description: In this study, we used the HEK293 cells stably expressing human LAT1 or human LAT2, which form a heterodimeric complex with endogenous 4F2hc (CD98hc), required for plasma membrane localization. We first explored the impact of halogen group positioning in the benzene ring of Phe (Fig. 1) on its interaction with LAT1 and LAT2. […] We conducted inhibition experiments to measure the uptake of L-[^14C]leucine by LAT1 and L-[^14C]alanine by LAT2 in the presence or absence of Phe derivatives with an iodo group at position 2, 3, or 4 in the benzene ring.
The inhibition experiments were performed as described previously. HEK293-hLAT1 (1.5 × 10^5 cells/well) or HEK293-hLAT2 (2 × 10^5 cells/well) cells were plated onto poly-D-lysine-coated 24-well plates (Corning, New York, USA). Following a 2-day culture period, the uptake of 1 μM L-[^14C]leucine or L-[^14C]alanine was measured for 1 min in the absence or presence of non-radiolabeled test compounds at concentrations of 10, 30, and 100 μM. Radioactivity was quantified using a β-scintillation counter (LSC-3100; Aloka, Tokyo, Japan), and protein concentrations were determined with a Micro BCA Protein Assay Kit (Thermo Fisher Scientific, Rockford, IL). To calculate Ki values, the concentration-dependent uptake of L-[^14C]leucine or L-[^14C]alanine was analyzed in the presence and absence of test compounds[49]. The data were plotted against substrate concentration and fitted to Michaelis–Menten kinetics. Ki values were derived using nonlinear regression analysis with the enzyme kinetics inhibition module in GraphPad Prism software (Version 10.0.2; GraphPad Software Inc., San Diego, CA, USA).

[2] = molecular target: T1, human LAT2; assay: Efflux of pre-loaded L-[14C]alanine from HEK293-hLAT2 cells induced by extracellular compounds; type: cell-based; conditions: 1 min
Method: We evaluated the efflux of pre-loaded L-[^14C]leucine from LAT1 and pre-loaded L-[^14C]alanine from LAT2 induced by extracellularly applied compounds.
Efflux experiments were performed as described previously. Cells cultured 48 h were pre-loaded with 5 μM L-[^14C]leucine or L-[^14C]alanine for 10 min at 37 °C. The cells were then washed, and the efflux was induced by incubating cells for 1 min in either the absence or presence of non-radiolabeled test compounds at indicated concentrations. The efflux time of 1 min fell within the linear range of time-dependent substrate efflux mediated by LAT1 and LAT2 (Supplementary Fig. S2). Following incubation, the medium was collected and radioactivity was measured in both the medium and the cells. Efflux was quantified as the percentage of radioactivity released into the medium, calculated using the formula: radioactivity of medium/(radioactivity of medium + radioactivity of cells) × 100%.
The kinetic parameters for the efflux of L-[^14C]leucine or L-[^14C]alanine induced by various concentrations of extracellularly-applied test compounds were analyzed. The baseline efflux values—those obtained in the absence of test compounds—were subtracted from the values measured in the presence of the compounds. The resultant data were fitted to Michaelis–Menten kinetics to determine the Km and Vmax by nonlinear regression analysis using “enzyme kinetics-velocity as a function of substrate” module within GraphPad Prism software.

[3] = test system: LAT1; design: method as in PMID 1559223; conditions: in situ brain perfusion; cited from earlier work

- Inhibition of LAT2-mediated L-[14C]alanine uptake (in words, rank order) ([1]; 1 μM L-[14C]alanine, 1 min, compounds at 10, 30, 100 μM): minimal inhibition
- Ki ([1]; L-[14C]alanine uptake, HEK293-hLAT2, mean ± S.E.M., n = 3–4, read-out: Ki (μM) LAT2): 3750 ± 740 µM
- Ki ([1]; as quoted in the discussion, read-out: Ki value for LAT2): ~3800 µM
- Vmax of efflux (% radioactivity/min) ([2]; LAT2, L-[14C]alanine efflux, mean ± S.E.M., n = 3): 10.05 ± 0.27 % radioactivity/min
- LAT2-mediated L-[14C]alanine efflux induced (in words) ([2]; compounds at 10, 30, 100 μM): not efficiently transported by LAT2
Structure (SMILES): N[C@]1(C(=O)O)CCc2ccccc2C1 [bicyclic-Phe, (R)-2-amino-1,2,3,4-tetrahydro-2-naphthoic acid]
- Vmax of BBB transport relative to melphalan [3]: approximately seven times higher
